Data set [1] can be described thus: Oral bioavailability in Sprague-Dawley rat at 1 mg/kg. It is filed as ADME, organism-based. The note with it: in vivo.
Data set [2] in a line: AUC (infinity) in Sprague-Dawley rat at 1 mg/kg, po. The format is ADME, organism-based. Details: time infinity, dose 1 mg/kg, route oral. The note with it: plasma.
The nature of data set [3]: Cmax in Sprague-Dawley rat at 1 mg/kg, po. The following applies: in vivo. The format is ADME, organism-based. Details: dose 1 mg/kg, route oral.
A short description of data set [4]: Mean residence time in Sprague-Dawley rat at 1 mg/kg, po. The note with it: in vivo. Details: dose 1 mg/kg, route oral. The format is ADME, organism-based.
Data set [5] is described as follows: Half life in Sprague-Dawley rat at 1 mg/kg, po. The format is ADME, organism-based. Details: dose 1 mg/kg, route oral. The note with it: in vivo.
Data set [6] can be described thus: Volume of distribution at steady state in Sprague-Dawley rat at 1 mg/kg, iv. It is filed as ADME, organism-based. Details: dose 1 mg/kg, route intravenous. The following applies: in vivo, read-out: Vdss.
The nature of data set [7]: Clearance in Sprague-Dawley rat at 1 mg/kg, iv. The format is ADME, organism-based. Details: dose 1 mg/kg, route intravenous. The following applies: in vivo.
Data set [8] can be described thus: Apparent intrinsic clearance in human liver microsomes. The following applies: read-out: CLH(app). The format is ADME, Microsome. (In general: Microsomes from liver hold many membrane-bound enzymes, among them those of drug oxidation.)

On to `CC(C)(O)[C@H]1CCC[C@H](NC(=O)C2CCN(c3nc4cc(Cl)c(C(F)(F)F)cc4o3)CC2)C1`, for which, in data set [1], the bioavailability (commonly dose-corrected exposure relative to a reference, in per cent) came to 38%. In data set [2], the AUC(0-inf) (as a rule, total exposure, with the tail of the curve extrapolated) stood at 0.45 µM·h. Further, the Cmax (usually the peak of the concentration-time curve) in data set [3] came to 120 nM. Further, the MRT – broadly, a mean duration of stay, worked out from the concentration-time curve – in data set [4] is 3.6 h. In addition, in data set [5], the half-life – broadly, the time in which the quantity being followed falls by half – is 5.4 h. In addition, the Vd in data set [6] turned out to be 4.6 L/kg. Also, the clearance – broadly, the volume of plasma or blood freed of the substance per unit of time – in data set [7] was 30 mL/min/kg. For the same compound, the CLint scaled in data set [8] is 98 mL/min/kg.

In turn, `O=C(N[C@H]1CCC[C@H](CO)C1)C1CCN(c2nc3cc(Cl)c(-c4ccc(Cl)cc4)cc3o2)CC1` registered a bioavailability in data set [1] of 42%. This compound also displayed an AUC(0-inf) in data set [2] of 1.9 µM·h. This compound came in with a Cmax in data set [3] of 200 nM. The MRT in data set [4] worked out at 6.8 h. Besides, the Vd in data set [6] was determined as 2.9 L/kg.

`Cc1cc2oc(N3CCC(C(=O)N[C@H]4CCC[C@H](C(C)(C)O)C4)CC3)nc2cc1Cl` came in with a bioavailability in data set [1] of 15%. In addition, the MRT in data set [4] was 0.78 h. This compound showed a half-life in data set [5] of 0.54 h. Further, the Vd in data set [6] is 2 L/kg. In data set [7], this compound registered a clearance of 44 mL/min/kg. Further, the CLint scaled in data set [8] turned out to be 223 mL/min/kg.

Take `CS(=O)(=O)[C@H]1CCC[C@H](NC(=O)C2CCN(c3nc4cc(Cl)c(C(F)(F)F)cc4o3)CC2)C1`: the bioavailability in data set [1] turned out to be 30%. In data set [2], this compound yielded an AUC(0-inf) of 1.1 µM·h. In data set [3], the Cmax was found to be 150 nM. The same compound came in with an MRT in data set [4] of 6.5 h. The compound further had a half-life in data set [5] of 17 h. Moreover, the Vd in data set [6] was 2.1 L/kg. The compound also showed a clearance in data set [7] of 9.4 mL/min/kg. Further, the CLint scaled in data set [8] turned out to be 4.6 mL/min/kg.
